{"source": "ChEMBL document CHEMBL5335768", "about": "“Expanding the knowledge around antitubercular 5-(2-aminothiazol-4-yl)isoxazole-3-carboxamides: Hit-to-lead optimization and release of a novel antitubercular chemotype via scaffold derivatization” (Eur J Med Chem, 2023)", "key": {"[1]": {"test_system": "Mycobacterium tuberculosis", "assay": "Antitubercular activity against STR/INH/RIF/EMB/ETH-resistant Mycobacterium tuberculosis IC1 assessed as inhibition of bacterial growth measured after 3 weeks by broth microdilution method", "type": "functional", "conditions": "IC1, 504 h"}, "[2]": {"test_system": "Mycobacterium tuberculosis", "assay": "microbe, parasite or virus in culture", "conditions": "IC2, 504 h"}}}
{"smiles": "NNC(=O)c1ccncc1", "note": "[ISONIAZID]", "values": [{"measurement": "MIC90", "setting": "[1]", "value": "> 0.2", "unit": "µg/mL"}, {"measurement": "MIC90", "setting": "[2]", "value": "> 0.2", "unit": "µg/mL"}]}
